Results reported in publication PMC5104457, “ATP-Competitive MLKL Binders Have No Functional Impact on Necroptosis” (PLoS ONE, 2016).

What was measured:
[1] = target: T1, N-terminal domain HSP90α (Homo sapiens, UniProt P07900); assay: Differential scanning fluorimetry (thermal shift), Hsp90α N-terminal domain; type: binding; conditions: 10 μM compound, Hsp90α catalytic domain
T1 construct: the N-terminal domain HSP90α; made in house
Protocol: To measure the thermal stabilization of the proteins upon compound binding we employed differential scanning fluorimetry (DSF). The kinase domain of RIPK1 and the N-terminal domain HSP90α were expressed and purified as previously described. The pseudokinase MLKL-1, RIPK1 and Hsp90 were melted at 1μM final concentrations in 25mM HEPES pH 8.0, 250mM NaCl and 2.5mM DTT. Compounds were added to a final concentration of 10 μ M with a final DMSO concentration of 5%. The complexes were incubated on ice for 30 minutes. Protein Thermal Shift dye (Life Technologies) was added to 1X. The fluorescence intensities were measured using a Quantstudio real-time PCR system (Life Technologies) with excitation at 470 nm and emission at 586 nm. The samples, measured in triplicate, were heated from 25 to 85°C with a heating rate of […].

[2] = target: T2, full length His-MBP-MLKL-3 (Homo sapiens, UniProt Q8NB16); assay: Second harmonic generation (SHG) conformational assay, full length MLKL; conditions: 10 μM compound, 20 minutes, mean ± SE
T2 construct: The full length MLKL was prepared in baculovirus; made in house; host or cells: baculovirus-infected sf9 insect cells
T2 sequence (Q8NB16 1-471): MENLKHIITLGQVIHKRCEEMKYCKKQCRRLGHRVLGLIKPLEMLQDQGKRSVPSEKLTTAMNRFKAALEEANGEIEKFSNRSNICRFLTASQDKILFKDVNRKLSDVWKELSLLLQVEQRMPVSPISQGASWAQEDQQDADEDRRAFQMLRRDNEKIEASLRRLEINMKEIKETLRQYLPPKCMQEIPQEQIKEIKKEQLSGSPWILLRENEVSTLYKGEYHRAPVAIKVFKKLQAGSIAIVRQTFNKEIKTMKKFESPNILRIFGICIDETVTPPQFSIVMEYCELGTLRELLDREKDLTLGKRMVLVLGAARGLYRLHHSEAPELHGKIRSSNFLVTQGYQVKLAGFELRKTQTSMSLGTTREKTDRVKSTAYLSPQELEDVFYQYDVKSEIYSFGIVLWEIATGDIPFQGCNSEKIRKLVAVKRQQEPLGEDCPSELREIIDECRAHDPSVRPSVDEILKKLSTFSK
Protocol: The full length MLKL was prepared in baculovirus using a bacmid DNA which was modified to include a Tev cleavable N-terminal His6 maltose binding protein (His-MBP) tag. His-MBP-MLKL-3 was expressed in baculovirus-infected sf9 insect cells grown in SF-900 II serum-free medium (Invitrogen). Cells were harvested by centrifugation 48 hours post-infection. The cells were resuspended in lysis buffer (50mM TRIS pH 8.0, 500mM NaCl, 10% glycerol, 1mM DTT and Roche EDTA-free protease inhibitor cocktail) and were lysed using a microfluidizer. The lysate was clarified by centrifugation at 20,000 x g for 1 hour at 4°C and the His-MBP-MLKL-3 was captured by batch binding to Nickel NTA resin overnight at 4°C. The resin was washed with buffer A (25mM TRIS pH 8.0, 250mM NaCl, 10% glycerol, 1mM DTT) and loaded into an XK column and washed until no non-specific unbound protein was detected. His-MBP-MLKL3 was eluted from the column using buffer A supplemented with 250mM imidazole pH 8.0 and analyzed by SDS-PAGE. […]
Experiments were performed on a Biodesy Delta System. […] The fundamental is directed to an arrangement of prisms integrated with the custom, glass-bottomed Biodesy Delta Read Plates, where it undergoes total internal reflection (TIR) to generate the evanescent field at the glass-lipid bilayer interface. […]

CN(c1ccc(NC(=O)Nc2ccc(OC(F)(F)F)cc2)cc1)c1ccnc(Nc2cccc(S(N)(=O)=O)c2)n1 [cpd 1, reference compound]
ΔTm at 10 µM [1]: 1.5 °C
% change in SHG intensity, Full-length HisMBP-MLKL-3 [2]: 25.9 ± 1.6%
